Experimental data: patent US20060003028A1, “Stable oxidizing bromine composition, method of manufacture and use thereof for biofouling control” (priority 2004, published 2006)

Legend:
[1] = tested on: mixed cooling water bacterial culture; test: Control experiments: bromide addition alone in phosphate buffer, plate counts; format: cell-based
Protocol: In order to make certain that the observed biocidal performance enhancement is not caused by the bromide addition alone, a set of control experiments are conducted. […] The differences among all the plate count results are well within the detection limit. Therefore, the performance improvement seen in Examples 1-3 is not caused by the increased concentration of sodium bromide alone.

[2] = in water; cited from earlier work

Compound: [Br-].[Na+] [NaBr, sodium bromide]
- Biocidal effect of bromide addition alone ([1]; 50-150 ppm NaBr in phosphate buffer): not biocidal
- Bacterial counts ([1]; 50 ppm NaBr, 0 minutes): 7.3 × 10^5 CFU/ml
- Bacterial counts ([1]; 50 ppm NaBr, 5 minutes): 9.3 × 10^5 CFU/ml
- Bacterial counts ([1]; 50 ppm NaBr, 10 minutes): 7.0 × 10^5 CFU/ml
- Bacterial counts ([1]; 50 ppm NaBr, 60 minutes): 8.0 × 10^5 CFU/ml
- Bacterial counts ([1]; 100 ppm NaBr, 0 minutes): 7.3 × 10^5 CFU/ml
- Bacterial counts ([1]; 100 ppm NaBr, 5 minutes): 11.0 × 10^5 CFU/ml
- Bacterial counts ([1]; 100 ppm NaBr, 10 minutes): 8.2 × 10^5 CFU/ml
- Bacterial counts ([1]; 100 ppm NaBr, 60 minutes): 5.4 × 10^5 CFU/ml
- Bacterial counts ([1]; 150 ppm NaBr, 0 minutes): 7.3 × 10^5 CFU/ml
- Bacterial counts ([1]; 150 ppm NaBr, 5 minutes): 8.4 × 10^5 CFU/ml
- Bacterial counts ([1]; 150 ppm NaBr, 10 minutes): 5.2 × 10^5 CFU/ml
- Bacterial counts ([1]; 150 ppm NaBr, 60 minutes): 8.3 × 10^5 CFU/ml

Compound: BrBr [elemental liquid bromine, bromine]
- solubility [2]: < 4 g/100 g water
